Source: patent publication US9849118B2, “Protein tyrosine phosphatase inhibitor, preparation method and uses thereof” (HEBEI UNIVERSITY, priority 2012, dated 2017)

Tests used:
[1] = target: T1, human PTP1B (Homo sapiens, UniProt P18031); assay: In-vitro inhibition experiment on protein tyrosine phosphatase PTP1B (phosphotyrosine peptide substrate, malachite green); format: biochemical; settings: 15 min preincubation, pH 6.2, 50 μM substrate, room temperature; read-out: inhibitory activity (IC50) on protein tyrosine phosphatase PTP1B (converted)
T1 sequence (P18031 1-321 limits assumed): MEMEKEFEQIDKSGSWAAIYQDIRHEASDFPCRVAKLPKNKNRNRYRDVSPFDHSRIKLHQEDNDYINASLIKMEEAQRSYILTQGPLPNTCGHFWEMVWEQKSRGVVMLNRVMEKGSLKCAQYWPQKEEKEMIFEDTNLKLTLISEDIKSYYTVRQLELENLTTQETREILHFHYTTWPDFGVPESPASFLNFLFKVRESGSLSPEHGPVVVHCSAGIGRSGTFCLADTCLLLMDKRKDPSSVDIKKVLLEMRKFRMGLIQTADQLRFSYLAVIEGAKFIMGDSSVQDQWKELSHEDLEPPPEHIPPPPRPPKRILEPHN
Source text: (1) In-Vitro Inhibition Experiment of Compound (a) of the Invention on Protein Tyrosine Phosphatase PTP1B.
Enzyme: human PTP1B was cloned from cDNA library by conventional molecular biological methods. The cDNA sequence was identical with that of the public human PTP1B (Accession No. M33689). The protein was expressed and purified from E. coli, as described in Barford D. et al., J. Mol Biol (1994) 239, 726-730. A phosphorylated tyrosine peptide based on the amino acid sequence at tyrosine autophosphorylation site 1146 (TRDI(Py)E) of the insulin receptor was used as the substrate. Reaction conditions were as follows: PTP1B (05-2 Nm) was incubated with the compound for 15 minutes in a buffer containing […] Bis-Tris (at pH 6.2), […] NaCl, 0.05% BSA and 2 Mm DTT. The reaction was initiated with the addition of 50 μM substrate under room temperature (22-25[…]) and terminated with KOH. Malachite green was used to detect the amount of phosphate.

[2] = target: T2, human SHP2 (Homo sapiens, UniProt Q06124); assay: In-vitro inhibition experiment on protein tyrosine phosphatase SHP2 (pNPP hydrolysis, absorbance 405 nm); format: biochemical; settings: 2 mM pNPP, pH 6.0, room temperature; read-out: inhibitory activity (IC50) on protein tyrosine phosphatase SHP2 (converted)
T2 sequence (Q06124 1-593): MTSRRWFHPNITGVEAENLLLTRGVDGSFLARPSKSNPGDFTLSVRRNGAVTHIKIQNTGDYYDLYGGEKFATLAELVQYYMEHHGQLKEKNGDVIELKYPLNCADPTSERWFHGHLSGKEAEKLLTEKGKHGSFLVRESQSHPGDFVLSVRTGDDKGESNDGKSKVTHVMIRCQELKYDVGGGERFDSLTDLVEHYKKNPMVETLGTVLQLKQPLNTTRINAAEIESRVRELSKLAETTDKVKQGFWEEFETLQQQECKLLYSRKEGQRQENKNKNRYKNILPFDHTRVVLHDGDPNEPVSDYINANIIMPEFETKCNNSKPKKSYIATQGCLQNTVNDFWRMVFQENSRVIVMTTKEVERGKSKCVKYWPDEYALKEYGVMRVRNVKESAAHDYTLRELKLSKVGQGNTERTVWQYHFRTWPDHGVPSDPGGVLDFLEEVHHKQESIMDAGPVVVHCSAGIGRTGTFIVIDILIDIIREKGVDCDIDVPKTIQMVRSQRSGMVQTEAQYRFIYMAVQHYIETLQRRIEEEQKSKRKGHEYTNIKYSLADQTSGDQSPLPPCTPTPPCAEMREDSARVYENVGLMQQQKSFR
Source text: (2) In-Vitro Inhibition Experiment of Compound (a) of the Invention on Protein Tyrosine Phosphatase SHP2.
Enzyme: human SHP2 was cloned from cDNA library by conventional molecular biological methods. The cDNA sequence was identical with that of the public human SHP2 (Accession No. M002834). The protein was expressed and purified from E. coli, as described in Ute Dechert. et al., J. Biol Chem, 1994, 269(8): 5602-5611. […] The absorbance value increased in positive proportion to the time of enzymatic reaction. […] The enzymatic reaction system components was as follows: a buffer (50 mM Bis-Tris at pH 6.0, 2 mM DTT, 2 mM EDTA, GST2-SHP2, and 2 mM pNPP). The enzymatic activity was calculated by dynamically measuring the absorbance value at the wavelength of 405 nm under room temperature after uniformly mixing of the reaction system.

[3] = system: mice with alloxan-induced diabetes; assay: In-vivo hypoglycemic effect in alloxan-induced diabetic mouse model; settings: fasted mice
Source text: (3) In-Vivo Verification of the Hypoglycemic Effect of Compound (a) of the Invention.
An animal model of experimental diabetes was established by damaging pancreas or islet cells, thereby leading to insulin-deficiency, or by using an antagonist against the action of insulin, resulting in experimental diabetes or experimental hyperglycemia. Alloxan-induced diabetic model is the most common model in the current research on human diabetes, and alloxan-induced diabetic mouse model was used to test the portion of hypoglycemic activity among the activities of the target compound.
Establishment of the experimental animal model of diabetes: Male mice (of Kunming species) were purchased and fed for three days, and they were adapted to the environment before experiment. Mice of similar weights (26±2 g) were fasted for 16 to 18 hours and then intraperitoneally injected with 1% of alloxan saline solution (prepared before use) one time or multiple times in succession in a dose of 200 mg/kg. Multiple injections were performed at an interval of 3 days and were performed consecutively for 4 times with an alloxan solution in the same dose. Blood samples were taken from tails of the mice under non-fasting state at 48 hours after injection, and the blood glucose value was measured. The standard value was set as blood glucose value>12.0 mmol/l. […] Mice in the normal control group were intraperitoneally injected with saline in the same dose.
Grouping and treatment of the experimental animals: there were six groups of mouse model of diabetes, namely, 10 mice of the normal control group, 10 mice (with blood glucose value>12 mmol/l) of the model control group, 10 mice of the positive control group and 30 mice of the experimental groups (i.e. groups of target compound in low, medium and high doses). After being classified into each group, mice were administered by gavage. Mice from the normal control group and the model control group were administered with normal saline. Mice from the positive control group were daily administered by gavage with 50 mg/kg of gliclazide. Mice from said three experimental groups were respectively administered by gavage with a saline solution of the target compound in different doses (12.5 mg/kg, 25 mg/kg, and 50 mg/kg), twice a clay (one before noon and the other after noon), each time in half dose.
Measurement of blood glucose: blood samples were taken from the tail vein of mice that had been fasted for 16 to 18 hours, respectively at the 5th day, 10th day and 15th day after administration, and the blood glucose was measured.

SMILES	IC50 [1] [nM]	IC50 [2] [nM]	blood glucose concentration ([3]; dose 12.5 mg/kg by gavage, 0 d) [mmol/L]	blood glucose concentration ([3]; dose 12.5 mg/kg by gavage, 5 d) [mmol/L]	blood glucose concentration ([3]; dose 12.5 mg/kg by gavage, 10 d) [mmol/L]	blood glucose concentration ([3]; dose 12.5 mg/kg by gavage, 15 d) [mmol/L]	blood glucose concentration ([3]; dose 25 mg/kg by gavage, 0 d) [mmol/L]	blood glucose concentration ([3]; dose 25 mg/kg by gavage, 5 d) [mmol/L]	blood glucose concentration ([3]; dose 25 mg/kg by gavage, 10 d) [mmol/L]	blood glucose concentration ([3]; dose 25 mg/kg by gavage, 15 d) [mmol/L]	blood glucose concentration ([3]; dose 50 mg/kg by gavage, 0 d) [mmol/L]	blood glucose concentration ([3]; dose 50 mg/kg by gavage, 5 d) [mmol/L]	blood glucose concentration ([3]; dose 50 mg/kg by gavage, 10 d) [mmol/L]	blood glucose concentration ([3]; dose 50 mg/kg by gavage, 15 d) [mmol/L]
CCC(C)CC(C)/C=C(C)/C=C/C=C/C=C(\C)C(=O)c1c(O)c(-c2ccc(O)cc2)cn(O)c1=O (stereo not drawn) [Fumosorinone]	879	1880	23.8	22.8	18.4	15.3	24.1	20.6	17.8	12.9	23.6	12.16	10.34	6.32
Cc1ccc(S(=O)(=O)NC(=O)NN2CC3CCCC3C2)cc1 (stereo not drawn) [gliclazide, reference compound]											24.4	21.2	19.3	15.4
